# Measured values: PubChem BioAssay AID1996
# Details: buffer; pH 7.4; 200.0 µM
row,Compound,solubility kinetic [µg/mL]
1,COC(=O)Nc1ccc(S(=O)(=O)N2CCCC(C(=O)NCC3CCCO3)C2)cc1 (stereo not given),> 63.8
2,COc1ccc(C(=O)CNc2ccc(C)cc2C)cc1,5.8
3,C1=C(c2ccccc2)CCNC1.Cl,24.9
4,Cc1ccc(C(=O)NCc2ccc3c(c2)OCO3)cc1,34.8
5,CCc1ccc(S(=O)(=O)n2c(C)nc3ccccc32)cc1,40.3
6,O=C(O)c1ccc2c(c1)C(=O)N(c1ccc(Nc3ccccc3)cc1)C2=O,51.6
7,C=CCn1c(O)c(N=O)c2cc(C)ccc21,> 32.4
8,CCN(Cc1ccncc1)Cc1ccc(OC)cc1OC.O=C(O)C(=O)O,43.5
9,Cc1cc(C)c(S(=O)(=O)Nc2ccc(Cl)cn2)c(C)c1,1.8
10,CC(C)c1nnc(NC(=O)CCC(=O)NC2CC2)s1,> 42.4
11,O=C(CSCc1ccc(Cl)cc1)NCCSCc1ccco1,36.3
12,CCOc1ccc(C(=O)n2cc(C(=O)OC)c3ccccc32)cc1,< 0.7
13,Cc1cc(C)c2c(CC(=O)NC(C)C)coc2c1,9.5
14,OCCC1CN(Cc2ccon2)CCN1CCc1ccccc1 (stereo not given),42.3
15,O=C(NCN1CCOCC1)c1cnccn1,30.6
16,O=C(COC(=O)c1ccccc1OCc1ccccc1Cl)NC1CCS(=O)(=O)C1 (stereo not given),> 65.7
17,O=C(Nc1ccccc1)NN(C(=O)CCl)c1ccccc1,> 45.6
18,COc1ccc(NC(=O)c2ccc(N3CCOCC3)nc2)cc1,6.3
19,O=C(NCc1csc(-c2cccs2)n1)c1ccsc1,45.9
20,COc1ccc(N2C(=O)CC(c3ccc([N+](=O)[O-])cc3)C2=O)cc1 (stereo not given),14.9
21,OC(C#CCN1CCCCC1)(c1ccccc1)c1ccccc1,13
22,Cc1ccc(C(=O)N2CCN(c3ncccn3)CC2)c(C)c1,27.5
23,COc1ccc(N2C(=O)NC(=O)/C(=C\c3ccccc3[N+](=O)[O-])C2=O)cc1,54.4
24,O=C(NC1(Cc2ccc(O)cc2)CCCCC1)c1ccccc1,44.9

row,Compound,solubility kinetic [µg/mL]
1,O=C1c2ccccc2C(=O)N1CCCn1ccnc1,> 38.3
2,CSc1sc(C(=O)N(C)C)cc1S(=O)(=O)C(C)C,> 46.1
3,CS(=O)(=O)N(CC(=O)N1CCOCC1)c1ccccc1,> 44.8
4,NC(=O)COC(=O)c1ccccc1OCc1ccccc1,> 42.8
5,Cc1cc(/C(N)=N/OC(=O)c2ccccc2Cl)no1,> 42
6,Cc1ccc2nc(SCC(=O)Nc3ccc(C(N)=O)cc3)[nH]c2c1,9.9
7,Cc1ccc(NC(=O)C2CCCC2)cc1Cl,3.7
8,CC(=O)c1c(C)[nH]c(C(=O)NCC2CCCCC2)c1C,23.4
9,O=C(Nc1nccs1)c1cc2cc(Cl)ccc2oc1=O,1.5
10,CCc1ccc(NC(=O)NCCN2CCCCC2)cc1,> 41.3
11,C/C(CC(=O)Nc1cccc(F)c1)=N\NC(=O)c1ccncc1,> 47.1
12,Cl.NCCC(=O)N1c2ccccc2Sc2ccccc21,29.9
13,O=C(NCC(c1cccs1)N1CCOCC1)c1cnc(Cl)c(Cl)c1 (stereo not given),> 57.9
14,COc1ccccc1/C=C(\C#N)C(=O)c1cccn1C,9.7
15,CC(=O)Nc1ccc(C(=O)COC(=O)c2cc(C)oc2C)c(F)c1,7.8
16,Cc1cc(C)n2nc(-c3ccco3)nc2n1,> 32.1
17,COc1cc(CCC(=O)OCC(=O)NCCc2ccc(S(N)(=O)=O)cc2)cc(OC)c1OC,> 72.1
18,O=C(NC1C2CC3CC(C2)CC1C3)C1CCCCC1 (stereo not given),1.6
19,COc1ccc(Cl)cc1NCCC(O)c1ccc(F)cc1 (stereo not given),24.7
20,Cc1ccc(C)c(NC(=O)NCCN2CCCCC2)c1,35.6
21,CCN(CC)c1c([N+](=O)[O-])c(=O)n(CC)c2ccccc12,32.4
22,Cc1cc(N2CCCC2)c(F)cc1/C=C\[N+](=O)[O-],0.4
23,Cc1ccccc1OP(N)(=O)Oc1ccccc1C,> 41.6
24,O=C(Nc1nccs1)C1CCCN1/C=C/C(=O)C(F)(F)F (stereo not given),46.1

row,Compound,solubility kinetic [µg/mL]
1,CCC(C)Nc1nc(N)c([N+](=O)[O-])c(Nc2ccccc2OC)n1 (stereo not given),2.6
2,Cc1ccc(-c2csc(NC(=O)c3c(C)noc3C)n2)cc1,6.4
3,Cc1ccsc1C(=O)OCC(=O)NC1CCCCC1C (stereo not given),12
4,CCCCn1c(=O)cc(C)n(-c2ccccc2)c1=O,22.8
5,Cn1c(=O)c2c(nc(Oc3cccc(O)c3)n2C)n(C)c1=O,> 45.3
6,N#Cc1c(N2CCCC(O)C2)nc(N)c2c(N)nc3c(c12)CC(=O)N3C12CC3CC(CC(C3)C1)C2 (stereo not given),2.4
7,COc1ccc(NC(=O)Cn2cnc3ccccc3c2=O)cc1OC,12.6
8,C[C@@H]1CC2(CCCC[N+]2(C)C)C[C@H]1C.[I-],> 48.5
9,CCN(CC(=O)NC1CC1)S(=O)(=O)c1ccc(OC)cc1,> 46.9
10,NC(=S)c1cc2cc(Br)ccc2oc1=O,< 0.6
11,COc1ccc(CCNC(=O)c2cc(=O)n(C)c(=O)n2C)cc1OC,48.7
12,COc1ccc(NC(=O)CSc2ncnc3sc(C)cc23)cc1,1.2
13,CCN(CC)S(=O)(=O)c1ccc2oc(SCC(=O)NC3CC3)nc2c1,> 57.5
14,CNC(=O)CSc1nccn1Cc1ccc(Cl)cc1,> 44.4
15,COc1ccc(OC(C)C(=O)NC2CCCCCCC2)cc1 (stereo not given),45.1
16,O=C(COC(=O)c1ccc(O)cc1)Nc1ccc(S(=O)(=O)N2CCOCC2)cc1,52.4
17,CC(=O)Nc1ccc(C(=O)OCC(=O)N2CCCC2=O)cc1,> 45.6
18,Cc1cc(C)nc(SC/C=C/c2ccccc2)n1.Cl,5.4
19,O=C(CCOc1ccccc1)Nc1ccc(Br)cc1,< 0.7
20,COc1ccccc1N1CCN(C2CCC(C)CC2)CC1 (stereo not given),31.7
21,NC(=S)Nc1c(Cl)cccc1Cl,> 33.2
22,N#Cc1ccccc1/C=C/C(=O)N1CCOCC1,> 36.3
23,N#Cc1c(-c2ccccc2)ccnc1N1CCOCC1,17.6
24,Cn1cc(/C=N/NC(N)=S)c2ccccc21,> 34.8

row,Compound,solubility kinetic [µg/mL]
1,Cc1ccc(C)c(C(=O)CCC(=O)NCc2ccc(Cl)cc2)c1,10.9
2,CN(CCC#N)C(=O)c1cc2c(Cl)nc3ccccc3c2s1,1.1
3,Cc1ccccc1OCC(=O)OCC(=O)NCc1ccc2c(c1)OCO2,17.3
4,CC(=O)c1cccc(NC(=S)NC2CCCCCCC2)c1,6
5,S=c1[nH]ccn1Cc1ccccc1,> 28.5
6,CC1CN(C(=S)Nc2ccc(Br)cc2)CC(C)O1 (stereo not given),48.5
7,CN1CCN(CC/C=C2/c3ccccc3Sc3ccc(S(=O)(=O)N(C)C)cc32)CC1,> 66.5
8,CN(C)c1nc2c(N)ncnc2n1[C@H]1O[C@@H](CO)[C@H](O)[C@@H]1O,> 46.5
9,Cc1ccccc1C(=O)Nc1ccc(S(=O)(=O)N2CCOCC2)cc1,> 54.1
10,COC(=O)C1=C(C)N(c2ccc(OC)cc2)C(C)=C(C(=O)OC)C1c1ccccc1,1
11,CCOc1ccccc1C(=O)NCC(=O)NCCCSc1ccccc1,2.5
12,O=C(COC(=O)CNC(=O)c1ccccc1)NC(=O)NC1CCCCC1,> 54.2
13,CCCCn1c(SCC(=O)NC2CC2)nc2ccccc2c1=O,2.6
14,O=c1[nH]c(/C=C/c2cccc(Br)c2)nc2ccccc12,< 0.4
15,Cc1cccc(Cc2c(C)[nH]c(=O)c(C#N)c2C)c1,5.5
16,Cn1cc(CCCC(=O)NCc2ccc(F)cc2)c2ccccc21,22.7
17,FC(F)(F)c1cccc(CN2CCN(c3ncccn3)CC2)c1,8.7
18,O=S(=O)(Nc1cccc(S(=O)(=O)N2CCCCC2)c1)c1ccccc1F,> 59.8
19,O=C1/C(=C/c2ccsc2)N2CCC1CC2,25.9
20,O=C1c2ccccc2C(=O)N1CCn1ccnc1,> 36.2
21,COc1ccc(S(=O)(=O)N2CCc3ccccc32)cc1C(=O)NCCc1ccc(S(N)(=O)=O)cc1,3.7
22,Cc1cc(C)c(NC(=S)N(C)C)cc1C,> 33.4
23,O=C(COC(=O)COc1ccc(Br)cc1)NCc1ccc2c(c1)OCO2,8.4
24,CCOc1ccccc1NC(=O)CCCNC(=O)c1ccc(Cl)cc1,50.4

row,Compound,solubility kinetic [µg/mL]
1,N#C/C(=C\c1cccc(O)c1)C(=O)Nc1ccc2c(c1)OCCO2,2
2,C[C@@H]1NC(=O)/C(=C\c2ccccc2Cl)NC1=O,12.8
3,COCCNC(=S)c1ccc(Br)cc1,34.5
4,Cc1ccc(NC(=O)CC2(CC(=O)O)CCCC2)cc1,> 41.3
5,COc1ccccc1OCC#CCn1ccnc1.O=C(O)C(=O)O,> 49.8
6,COc1ccccc1C/C(N)=N/OC(=O)COc1cccc(C)c1C,8.2
7,CCC(C)c1ccc(NC(=O)NCCN2CCCCC2)cc1 (stereo not given),40.3
8,Cc1ccc(/C=C/C(=O)O)cc1S(=O)(=O)N1CCc2ccccc21,> 51.5
9,COc1ccc(C(=O)NCCSCc2ccc(Cl)cc2)cc1OC,3.9
10,O=C(NCc1ccc2c(c1)OCO2)C(=S)N1CCOCC1,> 46.3
11,Cc1cc(CNC(=O)Cc2ccc(F)cc2)c2ccccc2n1,> 46.3
12,COc1cccc(COC(=O)C2CCN(C(=O)c3ccccc3C)CC2)c1OC,> 59.6
13,O=c1c(C/C=C/c2ccccc2)c(O)ccn1Cc1cccc(Cl)c1,< 0.8
14,Cc1ccccc1CC(=O)NCc1cccnc1,> 36
15,CCCC(=O)Nc1ccc2c(c1)nc(CCN1CCCCC1)n2C,> 49.3
16,O=C(NCCCc1ccccc1)c1cncc(Br)c1,47.9
17,Cc1ccc2[nH]c(CNC(=O)c3ccc(F)cc3)cc2c1,4.7
18,O=C(NCc1ccccc1)c1c[nH]c2ccc(F)cc2c1=O,9.1
19,Cc1cc(C)c(NC(=O)CN2CCCCCC2)c(C)c1,> 41.2
20,Cc1ccc(N2C(=O)C3ON(c4ccccc4)C(CC(C)C)C3C2=O)cc1 (stereo not given),11.6
21,CC(C)CC(=O)Nc1ccc2c(c1)nc(CCN1CCOCC1)n2C,> 51.7
22,Cc1ccc(N2C(=O)CSC2c2cccnc2)c(Cl)c1 (stereo not given),> 45.7
23,CN(C)CCNC(=O)c1ccccc1-c1cc2ccccc2c(=O)o1,> 50.5
24,Cc1cccnc1NC(=O)CNC(=O)c1cccs1,> 41.3
